Reference: ChEMBL document CHEMBL4507269, “Data for DCP probe BAY-386” (2021)

Tests used:
[1] = molecular target: T1, Muscarinic acetylcholine receptor M4 (Homo sapiens) (UniProt P08173); test: M4 (h) Eurofins-Cerep Cellular and Nuclear Receptor Functional Assays; conditions: Compound concentration 10.0 uM
T1 sequence (whole entry): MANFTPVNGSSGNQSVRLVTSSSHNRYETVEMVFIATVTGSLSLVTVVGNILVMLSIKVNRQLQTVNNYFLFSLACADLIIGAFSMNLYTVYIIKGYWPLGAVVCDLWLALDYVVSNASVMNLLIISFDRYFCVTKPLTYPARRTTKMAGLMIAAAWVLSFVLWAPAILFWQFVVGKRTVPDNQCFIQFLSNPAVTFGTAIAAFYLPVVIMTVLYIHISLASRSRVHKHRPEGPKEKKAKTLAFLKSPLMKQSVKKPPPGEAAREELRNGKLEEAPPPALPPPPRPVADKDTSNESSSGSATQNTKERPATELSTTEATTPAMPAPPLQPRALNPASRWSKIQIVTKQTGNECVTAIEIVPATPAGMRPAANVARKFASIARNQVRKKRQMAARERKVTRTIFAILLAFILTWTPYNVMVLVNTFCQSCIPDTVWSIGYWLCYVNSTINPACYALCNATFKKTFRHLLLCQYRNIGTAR

[2] = molecular target: P2Y purinoceptor 2 (Homo sapiens) (UniProt P41231); test: P2Y2 (h) Eurofins-Cerep Cellular and Nuclear Receptor Functional Assays; conditions: Compound concentration 10.0 uM
[3] = molecular target: Activin receptor type-2B (Homo sapiens) (UniProt Q13705); conditions: Compound concentration 1000.0 nM
[4] = molecular target: Aurora kinase C (Homo sapiens) (UniProt Q9UQB9); conditions: Compound concentration 1000.0 nM
[5] = molecular target: Bone morphogenetic protein receptor type-1B (Homo sapiens) (UniProt O00238); conditions: Compound concentration 1000.0 nM
[6] = molecular target: Calcium/calmodulin-dependent protein kinase type 1 (Homo sapiens) (UniProt Q14012); conditions: Compound concentration 1000.0 nM
[7] = molecular target: Peripheral plasma membrane protein CASK (Homo sapiens) (UniProt O14936); conditions: Compound concentration 1000.0 nM
[8] = molecular target: Cyclin-dependent kinase 4 (Homo sapiens) (UniProt P11802); conditions: Compound concentration 1000.0 nM
[9] = molecular target: Receptor tyrosine-protein kinase erbB-4 (Homo sapiens) (UniProt Q15303); conditions: Compound concentration 1000.0 nM
[10] = tested on: Fibroblast growth factor receptor 3 (Homo sapiens), P22607 [G697C]; conditions: Compound concentration 1000.0 nM
[11] = molecular target: Inhibitor of nuclear factor kappa-B kinase subunit alpha (Homo sapiens) (UniProt O15111); conditions: Compound concentration 1000.0 nM
[12] = molecular target: Inhibitor of nuclear factor kappa-B kinase subunit beta (Homo sapiens) (UniProt O14920); conditions: Compound concentration 1000.0 nM
[13] = molecular target: Interleukin-1 receptor-associated kinase 1 (Homo sapiens) (UniProt P51617); conditions: Compound concentration 1000.0 nM
[14] = molecular target: Mitogen-activated protein kinase kinase kinase kinase 2 (Homo sapiens) (UniProt Q12851); conditions: Compound concentration 1000.0 nM
[15] = molecular target: MAP/microtubule affinity-regulating kinase 4 (Homo sapiens) (UniProt Q96L34); conditions: Compound concentration 1000.0 nM
[16] = molecular target: Dual specificity mitogen-activated protein kinase kinase 1 (Homo sapiens) (UniProt Q02750); conditions: Compound concentration 1000.0 nM
[17] = molecular target: Muscle, skeletal receptor tyrosine-protein kinase (Homo sapiens) (UniProt O15146); conditions: Compound concentration 1000.0 nM
[18] = molecular target: Serine/threonine-protein kinase Nek7 (Homo sapiens) (UniProt Q8TDX7); conditions: Compound concentration 1000.0 nM
[19] = molecular target: Serine/threonine-protein kinase PAK 2 (Homo sapiens) (UniProt Q13177); conditions: Compound concentration 1000.0 nM
[20] = tested on: Phosphatidylinositol 4,5-bisphosphate 3-kinase catalytic subunit alpha isoform (Homo sapiens), P42336 [H1047L]; conditions: Compound concentration 1000.0 nM
[21] = molecular target: Serine/threonine-protein kinase PLK1 (Homo sapiens) (UniProt P53350); conditions: Compound concentration 1000.0 nM
[22] = molecular target: Protein kinase C iota type (Homo sapiens) (UniProt P41743); conditions: Compound concentration 1000.0 nM
[23] = molecular target: Serine/threonine-protein kinase D1 (Homo sapiens) (UniProt Q15139); conditions: Compound concentration 1000.0 nM
[24] = molecular target: Serine/threonine-protein kinase D2 (Homo sapiens) (UniProt Q9BZL6); conditions: Compound concentration 1000.0 nM
[25] = molecular target: Serine/threonine-protein kinase PRP4 homolog (Homo sapiens) (UniProt Q13523); conditions: Compound concentration 1000.0 nM
[26] = molecular target: Serine/threonine-protein kinase SIK3 (Homo sapiens) (UniProt Q9Y2K2); conditions: Compound concentration 1000.0 nM
[27] = molecular target: Rho-associated protein kinase 2 (Homo sapiens) (UniProt O75116); conditions: Compound concentration 1000.0 nM
[28] = molecular target: Serine/threonine-protein kinase SBK1 (Homo sapiens) (UniProt Q52WX2); conditions: Compound concentration 1000.0 nM
[29] = molecular target: Serine/threonine-protein kinase 33 (Homo sapiens) (UniProt Q9BYT3); conditions: Compound concentration 1000.0 nM
[30] = molecular target: Wee1-like protein kinase (Homo sapiens) (UniProt P30291); conditions: Compound concentration 1000.0 nM
[31] = molecular target: D(2) dopamine receptor (Homo sapiens) (UniProt P14416); conditions: Compound concentration 10.0 uM
[32] = molecular target: T2, Alpha-2A adrenergic receptor (Homo sapiens) (UniProt P08913); conditions: Compound concentration 10.0 uM
T2 sequence (whole entry): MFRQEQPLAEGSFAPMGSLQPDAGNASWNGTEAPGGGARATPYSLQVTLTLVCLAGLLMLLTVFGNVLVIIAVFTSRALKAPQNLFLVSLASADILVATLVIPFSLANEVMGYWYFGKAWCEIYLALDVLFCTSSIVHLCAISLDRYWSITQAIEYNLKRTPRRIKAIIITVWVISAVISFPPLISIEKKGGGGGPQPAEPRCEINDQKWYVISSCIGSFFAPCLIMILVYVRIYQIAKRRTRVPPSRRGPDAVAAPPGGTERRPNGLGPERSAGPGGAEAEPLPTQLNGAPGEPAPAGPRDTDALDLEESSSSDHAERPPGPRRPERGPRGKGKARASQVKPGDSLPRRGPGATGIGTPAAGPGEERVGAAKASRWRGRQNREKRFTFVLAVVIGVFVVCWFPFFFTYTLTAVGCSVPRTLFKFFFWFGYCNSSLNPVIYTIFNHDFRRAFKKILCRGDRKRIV

Chain of P2Y purinoceptor 2 (Homo sapiens) (P41231 whole entry): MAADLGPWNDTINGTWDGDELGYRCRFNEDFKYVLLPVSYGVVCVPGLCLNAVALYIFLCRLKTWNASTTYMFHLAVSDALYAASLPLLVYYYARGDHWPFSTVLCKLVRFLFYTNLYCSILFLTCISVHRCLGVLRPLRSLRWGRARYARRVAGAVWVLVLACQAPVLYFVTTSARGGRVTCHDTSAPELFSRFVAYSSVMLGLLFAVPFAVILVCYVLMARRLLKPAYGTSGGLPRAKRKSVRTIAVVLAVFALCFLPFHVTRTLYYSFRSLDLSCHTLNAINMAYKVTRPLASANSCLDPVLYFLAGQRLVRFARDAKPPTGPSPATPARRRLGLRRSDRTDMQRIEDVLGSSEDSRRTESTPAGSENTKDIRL
Chain of Cyclin-dependent kinase 4 (Homo sapiens) (P11802 whole entry): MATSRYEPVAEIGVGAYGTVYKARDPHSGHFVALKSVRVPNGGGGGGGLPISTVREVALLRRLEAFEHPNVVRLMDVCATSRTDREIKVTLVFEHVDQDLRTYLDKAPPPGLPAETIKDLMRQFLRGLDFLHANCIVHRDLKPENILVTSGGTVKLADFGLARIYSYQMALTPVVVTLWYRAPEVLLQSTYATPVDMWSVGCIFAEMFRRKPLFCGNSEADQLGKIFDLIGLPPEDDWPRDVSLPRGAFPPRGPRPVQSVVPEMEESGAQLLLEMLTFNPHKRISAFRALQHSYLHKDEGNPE
Chain of Serine/threonine-protein kinase 33 (Homo sapiens) (Q9BYT3 whole entry, looked up): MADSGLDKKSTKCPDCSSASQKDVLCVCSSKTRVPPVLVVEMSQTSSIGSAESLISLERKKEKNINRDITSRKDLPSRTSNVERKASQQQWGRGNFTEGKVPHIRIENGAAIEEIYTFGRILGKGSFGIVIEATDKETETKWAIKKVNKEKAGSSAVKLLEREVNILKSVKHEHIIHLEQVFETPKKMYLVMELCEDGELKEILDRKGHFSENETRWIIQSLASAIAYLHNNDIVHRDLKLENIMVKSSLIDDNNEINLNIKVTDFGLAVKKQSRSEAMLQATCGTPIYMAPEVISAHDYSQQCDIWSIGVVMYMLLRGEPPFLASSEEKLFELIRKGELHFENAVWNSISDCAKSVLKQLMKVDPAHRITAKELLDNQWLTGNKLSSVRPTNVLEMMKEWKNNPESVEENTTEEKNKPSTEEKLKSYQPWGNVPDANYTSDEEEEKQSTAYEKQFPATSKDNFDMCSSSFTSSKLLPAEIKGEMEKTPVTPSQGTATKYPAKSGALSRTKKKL
Chain of Calcium/calmodulin-dependent protein kinase type 1 (Homo sapiens) (Q14012 whole entry, looked up): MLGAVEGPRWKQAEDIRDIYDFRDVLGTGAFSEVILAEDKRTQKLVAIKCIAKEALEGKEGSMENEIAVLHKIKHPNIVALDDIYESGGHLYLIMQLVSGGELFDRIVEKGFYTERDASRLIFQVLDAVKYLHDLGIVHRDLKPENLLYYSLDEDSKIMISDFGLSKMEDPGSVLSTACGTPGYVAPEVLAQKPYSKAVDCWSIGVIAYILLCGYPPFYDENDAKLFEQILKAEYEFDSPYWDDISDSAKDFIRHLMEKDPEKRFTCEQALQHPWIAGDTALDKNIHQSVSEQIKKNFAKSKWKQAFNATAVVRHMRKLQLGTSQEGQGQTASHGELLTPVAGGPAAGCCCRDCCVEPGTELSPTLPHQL
Chain of Inhibitor of nuclear factor kappa-B kinase subunit beta (Homo sapiens) (O14920 whole entry): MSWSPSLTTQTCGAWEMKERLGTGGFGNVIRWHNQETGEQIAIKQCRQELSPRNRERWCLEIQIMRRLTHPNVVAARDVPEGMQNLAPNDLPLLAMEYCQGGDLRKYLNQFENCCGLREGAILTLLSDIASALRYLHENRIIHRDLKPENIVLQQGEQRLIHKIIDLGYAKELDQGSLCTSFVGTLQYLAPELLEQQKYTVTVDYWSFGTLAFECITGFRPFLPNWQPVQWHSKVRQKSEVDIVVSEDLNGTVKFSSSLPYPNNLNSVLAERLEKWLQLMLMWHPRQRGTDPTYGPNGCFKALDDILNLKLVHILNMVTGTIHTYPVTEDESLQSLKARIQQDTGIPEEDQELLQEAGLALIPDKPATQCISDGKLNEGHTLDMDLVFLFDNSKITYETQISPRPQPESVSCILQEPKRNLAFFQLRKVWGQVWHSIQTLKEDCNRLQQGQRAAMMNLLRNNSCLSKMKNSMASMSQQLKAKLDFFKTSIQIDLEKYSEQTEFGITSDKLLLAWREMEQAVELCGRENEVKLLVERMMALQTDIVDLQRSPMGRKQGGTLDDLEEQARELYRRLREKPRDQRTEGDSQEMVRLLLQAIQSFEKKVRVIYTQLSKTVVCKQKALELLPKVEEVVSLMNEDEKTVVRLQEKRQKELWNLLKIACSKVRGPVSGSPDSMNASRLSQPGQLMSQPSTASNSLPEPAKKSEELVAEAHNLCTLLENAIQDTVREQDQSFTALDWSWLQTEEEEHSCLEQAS
Chain of Serine/threonine-protein kinase PRP4 homolog (Homo sapiens) (Q13523 whole entry): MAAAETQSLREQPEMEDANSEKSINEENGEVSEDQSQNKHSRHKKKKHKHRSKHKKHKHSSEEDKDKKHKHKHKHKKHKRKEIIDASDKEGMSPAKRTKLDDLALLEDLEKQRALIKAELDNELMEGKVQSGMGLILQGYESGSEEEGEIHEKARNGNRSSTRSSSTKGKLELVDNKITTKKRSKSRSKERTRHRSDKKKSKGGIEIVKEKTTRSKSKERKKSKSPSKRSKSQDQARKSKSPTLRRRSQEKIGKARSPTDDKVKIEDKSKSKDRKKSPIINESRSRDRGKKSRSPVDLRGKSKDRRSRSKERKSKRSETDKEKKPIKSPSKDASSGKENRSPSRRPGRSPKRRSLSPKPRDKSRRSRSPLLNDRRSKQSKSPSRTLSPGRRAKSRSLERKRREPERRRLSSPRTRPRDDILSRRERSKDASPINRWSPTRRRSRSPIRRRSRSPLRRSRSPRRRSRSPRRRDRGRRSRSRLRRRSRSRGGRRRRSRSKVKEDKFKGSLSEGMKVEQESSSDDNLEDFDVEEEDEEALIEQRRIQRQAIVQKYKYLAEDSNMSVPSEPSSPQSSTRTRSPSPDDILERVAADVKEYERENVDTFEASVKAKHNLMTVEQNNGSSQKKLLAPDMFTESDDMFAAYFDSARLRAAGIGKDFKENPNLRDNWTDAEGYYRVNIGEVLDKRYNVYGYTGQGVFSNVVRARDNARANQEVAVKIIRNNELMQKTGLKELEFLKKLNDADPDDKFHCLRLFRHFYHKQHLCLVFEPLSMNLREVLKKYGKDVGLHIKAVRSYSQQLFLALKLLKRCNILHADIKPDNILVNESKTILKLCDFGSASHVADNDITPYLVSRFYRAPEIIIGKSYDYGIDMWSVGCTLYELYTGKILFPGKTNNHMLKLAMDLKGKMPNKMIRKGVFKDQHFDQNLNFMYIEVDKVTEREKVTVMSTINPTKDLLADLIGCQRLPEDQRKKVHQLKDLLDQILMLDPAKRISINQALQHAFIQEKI
Chain of Serine/threonine-protein kinase Nek7 (Homo sapiens) (Q8TDX7 whole entry, looked up): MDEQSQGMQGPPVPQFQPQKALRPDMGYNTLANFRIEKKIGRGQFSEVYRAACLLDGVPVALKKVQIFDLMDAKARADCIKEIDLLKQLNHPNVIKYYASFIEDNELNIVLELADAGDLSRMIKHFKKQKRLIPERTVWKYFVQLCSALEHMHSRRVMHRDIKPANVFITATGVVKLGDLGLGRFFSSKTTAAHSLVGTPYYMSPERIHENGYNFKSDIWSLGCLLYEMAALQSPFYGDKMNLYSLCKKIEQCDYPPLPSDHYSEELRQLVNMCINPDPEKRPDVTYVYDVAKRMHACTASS
Chain of Protein kinase C iota type (Homo sapiens) (P41743 whole entry): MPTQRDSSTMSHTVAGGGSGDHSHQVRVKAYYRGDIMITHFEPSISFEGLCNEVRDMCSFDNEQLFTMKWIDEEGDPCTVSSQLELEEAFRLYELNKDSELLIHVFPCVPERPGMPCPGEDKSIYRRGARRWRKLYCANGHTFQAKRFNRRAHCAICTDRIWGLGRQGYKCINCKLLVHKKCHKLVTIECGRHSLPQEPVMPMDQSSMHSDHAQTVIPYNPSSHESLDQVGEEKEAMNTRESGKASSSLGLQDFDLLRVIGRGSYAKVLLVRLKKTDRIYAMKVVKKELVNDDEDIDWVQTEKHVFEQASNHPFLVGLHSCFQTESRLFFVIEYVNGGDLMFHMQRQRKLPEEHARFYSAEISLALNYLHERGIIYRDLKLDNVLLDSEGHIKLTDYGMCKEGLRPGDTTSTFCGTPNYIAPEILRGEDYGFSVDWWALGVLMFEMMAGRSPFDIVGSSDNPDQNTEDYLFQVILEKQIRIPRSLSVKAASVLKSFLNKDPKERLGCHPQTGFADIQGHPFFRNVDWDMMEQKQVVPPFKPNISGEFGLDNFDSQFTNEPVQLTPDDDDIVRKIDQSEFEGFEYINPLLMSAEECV
Chain of D(2) dopamine receptor (Homo sapiens) (P14416 whole entry): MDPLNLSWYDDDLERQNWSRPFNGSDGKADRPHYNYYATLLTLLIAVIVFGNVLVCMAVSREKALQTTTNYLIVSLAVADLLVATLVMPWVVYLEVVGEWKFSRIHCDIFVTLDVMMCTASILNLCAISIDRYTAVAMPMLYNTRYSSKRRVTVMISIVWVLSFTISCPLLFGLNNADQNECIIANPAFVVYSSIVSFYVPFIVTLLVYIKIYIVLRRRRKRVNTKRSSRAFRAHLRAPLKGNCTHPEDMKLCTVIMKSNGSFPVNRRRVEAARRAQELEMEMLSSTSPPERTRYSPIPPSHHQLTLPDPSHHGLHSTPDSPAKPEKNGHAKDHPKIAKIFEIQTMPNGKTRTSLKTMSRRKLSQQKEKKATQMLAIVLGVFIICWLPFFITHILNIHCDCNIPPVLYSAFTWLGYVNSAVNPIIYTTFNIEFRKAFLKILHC
Chain of Aurora kinase C (Homo sapiens) (Q9UQB9 whole entry): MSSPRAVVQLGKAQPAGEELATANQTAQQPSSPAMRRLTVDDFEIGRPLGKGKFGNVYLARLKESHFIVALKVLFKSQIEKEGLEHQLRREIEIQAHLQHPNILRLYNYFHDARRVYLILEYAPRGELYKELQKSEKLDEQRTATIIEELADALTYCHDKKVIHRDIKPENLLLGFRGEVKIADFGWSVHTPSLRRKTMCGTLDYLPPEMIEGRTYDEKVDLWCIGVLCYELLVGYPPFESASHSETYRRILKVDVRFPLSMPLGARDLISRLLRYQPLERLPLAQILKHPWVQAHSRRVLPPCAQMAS

SMILES	% Inhibition of Control Agonist Response (Mean n=2) [1] [%]	% of Control Agonist Response (Mean n=2) [1] [%]	% Inhibition of Control Agonist Response (Mean n=2) [2] [%]	% of Control Agonist Response (Mean n=2) [2] [%]	residual activity [3] [%]	residual activity [4] [%]	residual activity [5] [%]	residual activity [6] [%]	residual activity [7] [%]	residual activity [8] [%]	residual activity [9] [%]	residual activity [10] [%]	residual activity [11] [%]	residual activity [12] [%]	residual activity [13] [%]	residual activity [14] [%]	residual activity [15] [%]	residual activity [16] [%]	residual activity [17] [%]	residual activity [18] [%]	further results
O=C(N1CCS(=O)(=O)CC1)N1C[C@H](c2ccc(OC(F)(F)F)cc2)C[C@H](c2nc(C3CC3)no2)C1 [BAY-386]	5.8	-15	41.9	0.7	86	99	82	100	100	96	95	100	97	77	92	94	100	91	100	100	residual activity [19]: 90%; residual activity [20]: 100%; residual activity [21]: 91%; residual activity [22]: 100%; residual activity [23]: 100%; residual activity [24]: 100%; residual activity [25]: 97%; residual activity [26]: 77%; residual activity [27]: 98%; residual activity [28]: 90%; residual activity [29]: 99%; residual activity [30]: 100%; inhibition [31]: -0.71%; inhibition [32]: -0.34%
Cc1noc([C@H]2C[C@@H](c3ccc(C(F)(F)F)cc3)CN(C(=O)N3CCS(=O)(=O)C3)C2)n1 [BAY-448]	1.9	25.1	29.1	-4.2	100	100	100	100	93	100	100	84	100	80	100	100	84	100	100	100	residual activity [19]: 87%; residual activity [20]: 100%; residual activity [21]: 81%; residual activity [22]: 100%; residual activity [23]: 100%; residual activity [24]: 100%; residual activity [25]: 72%; residual activity [26]: 78%; residual activity [27]: 100%; residual activity [28]: 100%; residual activity [29]: 100%; residual activity [30]: 100%; inhibition [31]: -0.15%; inhibition [32]: 6.96%
